Experimental data taken from article PMC3433420 (PLoS ONE, 2012).
Residues, ends and D or L forms follow the SMILES beside them.

Key:
Assay in all cases: In-house protein microarrays (with or without 5 mM DTT), protein named per line
Type in all cases: binding
SH2 and PTB domains [1] = biological target: T1, SH2 and PTB domains (Homo sapiens, UniProt P27986)
T1 construct: thioredoxin; made in house; host or cells: BL21(DE3)pLysS E. coli
Outline: (§1)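 Recombinant domains (~40 µM) spotted in duplicate on aldehyde slides, quenched 1 h at room temperature in HEPES/KCl/Tween-20 buffer pH 7.8 with 5 mM DTT and 1% BSA, then probed with rhodamine-labeled peptide. Thioredoxin-subtracted mean fluorescence fitted for KD.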

SH2 and PTB domains [2] = biological target: T2, SH2 and PTB domains (Homo sapiens, UniProt P20936)
T2 construct: thioredoxin; made in house; host or cells: BL21(DE3)pLysS E. coli
T2 sequence (P20936 1-1047): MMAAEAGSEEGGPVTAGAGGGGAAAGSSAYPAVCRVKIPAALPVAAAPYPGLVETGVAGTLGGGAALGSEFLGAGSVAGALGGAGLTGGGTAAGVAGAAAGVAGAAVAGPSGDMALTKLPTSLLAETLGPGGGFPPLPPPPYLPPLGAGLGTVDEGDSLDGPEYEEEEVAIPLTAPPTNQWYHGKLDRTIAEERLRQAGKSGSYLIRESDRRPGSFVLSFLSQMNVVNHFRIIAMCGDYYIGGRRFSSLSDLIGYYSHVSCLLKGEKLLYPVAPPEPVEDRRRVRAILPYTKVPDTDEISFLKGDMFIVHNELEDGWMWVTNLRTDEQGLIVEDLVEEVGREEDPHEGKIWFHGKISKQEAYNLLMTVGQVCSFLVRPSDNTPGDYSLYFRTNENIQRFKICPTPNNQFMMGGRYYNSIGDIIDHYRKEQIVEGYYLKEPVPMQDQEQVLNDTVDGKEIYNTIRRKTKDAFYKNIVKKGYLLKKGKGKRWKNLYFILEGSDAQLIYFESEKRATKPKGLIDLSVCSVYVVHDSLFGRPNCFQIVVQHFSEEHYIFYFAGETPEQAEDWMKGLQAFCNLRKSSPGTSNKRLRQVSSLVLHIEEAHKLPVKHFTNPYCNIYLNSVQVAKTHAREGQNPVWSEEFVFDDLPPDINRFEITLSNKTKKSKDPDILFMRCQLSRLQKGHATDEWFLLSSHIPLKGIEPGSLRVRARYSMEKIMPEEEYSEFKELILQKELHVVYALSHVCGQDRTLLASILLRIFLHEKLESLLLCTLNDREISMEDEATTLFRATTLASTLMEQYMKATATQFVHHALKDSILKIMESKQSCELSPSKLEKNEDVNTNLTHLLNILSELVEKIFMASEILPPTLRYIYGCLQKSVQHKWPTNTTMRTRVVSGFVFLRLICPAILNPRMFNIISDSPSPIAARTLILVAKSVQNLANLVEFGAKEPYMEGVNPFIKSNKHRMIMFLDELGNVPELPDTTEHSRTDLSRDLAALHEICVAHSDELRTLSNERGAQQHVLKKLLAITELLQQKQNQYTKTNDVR
Outline: as §1

SH2 and PTB domains [3] = biological target: T3, SH2 and PTB domains (Homo sapiens, UniProt P78314); conditions: protein SH3BP2
T3 construct: thioredoxin; made in house; host or cells: BL21(DE3)pLysS E. coli
T3 sequence (P78314 1-561): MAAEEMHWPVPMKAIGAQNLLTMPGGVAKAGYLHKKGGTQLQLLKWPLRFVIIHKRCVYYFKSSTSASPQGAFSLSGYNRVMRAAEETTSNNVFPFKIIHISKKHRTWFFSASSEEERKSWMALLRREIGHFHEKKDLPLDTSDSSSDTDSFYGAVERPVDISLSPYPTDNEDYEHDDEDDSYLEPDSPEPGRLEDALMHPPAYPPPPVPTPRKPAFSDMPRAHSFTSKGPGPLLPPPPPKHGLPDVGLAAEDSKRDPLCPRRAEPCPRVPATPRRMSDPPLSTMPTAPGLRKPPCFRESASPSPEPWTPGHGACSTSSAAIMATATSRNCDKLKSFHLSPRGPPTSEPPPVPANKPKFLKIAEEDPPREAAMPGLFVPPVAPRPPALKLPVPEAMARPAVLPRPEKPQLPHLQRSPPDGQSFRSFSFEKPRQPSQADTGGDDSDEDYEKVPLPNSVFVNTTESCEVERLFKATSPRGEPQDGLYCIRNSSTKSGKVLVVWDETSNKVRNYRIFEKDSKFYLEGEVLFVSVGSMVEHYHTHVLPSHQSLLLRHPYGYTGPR
Outline: as §1

[4] = protein RASA1-NC, PM assay replicate # 39337, array fabrication # 39329
[5] = PM assay replicate # 39307, array fabrication # 39286
[6] = PM assay replicate # 39351, array fabrication # 39336
[7] = PM assay replicate # 39352, array fabrication # 39336

T1 sequence (P27986 whole entry, the tested form may be a part): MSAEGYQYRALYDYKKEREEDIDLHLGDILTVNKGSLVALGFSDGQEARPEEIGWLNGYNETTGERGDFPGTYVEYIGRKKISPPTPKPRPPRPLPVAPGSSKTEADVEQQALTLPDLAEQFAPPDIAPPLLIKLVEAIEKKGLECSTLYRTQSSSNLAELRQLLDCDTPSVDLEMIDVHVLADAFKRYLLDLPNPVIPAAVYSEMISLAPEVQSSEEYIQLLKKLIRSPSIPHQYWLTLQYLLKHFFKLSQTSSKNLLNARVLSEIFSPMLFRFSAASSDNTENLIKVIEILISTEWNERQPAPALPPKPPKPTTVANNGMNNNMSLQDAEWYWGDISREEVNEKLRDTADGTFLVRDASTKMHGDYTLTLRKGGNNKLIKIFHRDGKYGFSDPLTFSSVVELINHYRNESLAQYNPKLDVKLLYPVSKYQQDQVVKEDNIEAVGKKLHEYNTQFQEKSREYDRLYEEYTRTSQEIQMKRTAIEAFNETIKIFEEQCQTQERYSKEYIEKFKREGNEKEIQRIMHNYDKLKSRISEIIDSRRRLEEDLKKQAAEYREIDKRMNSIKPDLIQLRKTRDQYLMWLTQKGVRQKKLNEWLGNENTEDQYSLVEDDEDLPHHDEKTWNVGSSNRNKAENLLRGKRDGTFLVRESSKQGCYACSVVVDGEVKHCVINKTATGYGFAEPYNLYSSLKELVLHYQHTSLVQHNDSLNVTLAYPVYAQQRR

SMILES | Kd (SH2 and PTB domains [1]; protein PIK3R1-N, PM assay replicate # 39336, array fabrication # 39329) [µM] | Kd (SH2 and PTB domains [1]; protein PIK3R1-N, PM assay replicate # 39337, array fabrication # 39329) [µM] | Kd (SH2 and PTB domains [2]; protein RASA1-C, PM assay replicate # 39337, array fabrication # 39329) [µM] | Kd (SH2 and PTB domains [2]; protein RASA1-N, PM assay replicate # 39336, array fabrication # 39329) [µM] | Kd (SH2 and PTB domains [2]; protein RASA1-N, PM assay replicate # 39337, array fabrication # 39329) [µM] | Kd (SH2 and PTB domains [2]; protein RASA1-NC, PM assay replicate # 39336, array fabrication # 39329) [µM] | Kd (SH2 and PTB domains [2]; [4]) [µM] | Kd (SH2 and PTB domains [2]; protein RASA1-NC, PM assay replicate # 39603, array fabrication # 39392) [µM] | Kd (SH2 and PTB domains [3]; [5]) [µM] | Kd (SH2 and PTB domains [3]; PM assay replicate # 39337, array fabrication # 39329) [µM] | Kd (SH2 and PTB domains [3]; [6]) [µM] | Kd (SH2 and PTB domains [3]; [7]) [µM] | Kd (SH2 and PTB domains [1]; protein PIK3R1-NC, PM assay replicate # 39307, array fabrication # 39286) [µM] | Kd (SH2 and PTB domains [1]; protein PIK3R1-NC, PM assay replicate # 39337, array fabrication # 39329) [µM] | Kd (SH2 and PTB domains [2]; protein RASA1-N, PM assay replicate # 39307, array fabrication # 39286) [µM]
CC(C)C[C@H](NC(=O)[C@@H]1CCCN1C(=O)[C@H](C)NC(=O)[C@@H](NC(=O)[C@H](Cc1ccc(OP(=O)(O)O)cc1)NC(=O)CNC(=O)[C@H](CC(=O)O)NC(=O)[C@@H](NC(=O)[C@@H](N)CCC(=O)O)[C@@H](C)O)C(C)C)C(=O)N[C@H](C(=O)N[C@@H](CS)C(=O)N[C@@H](CO)C(=O)N[C@@H](CC(=O)O)C(=O)O)[C@@H](C)O [ErbB2 pY1127] | 0.019 | 0.22 | 1.21 | 0.59 | 0.11 | 0.12 | 0.03 | 0.06 | – | – | – | – | – | – | –
CCN(CC)c1ccc2c(-c3ccc(C(=O)N[C@@H](CC(N)=O)C(=O)NCC(=O)N4CCC[C@H]4C(=O)N4CCC[C@H]4C(=O)N[C@@H](CCCCN)C(=O)N[C@@H](C)C(=O)N[C@@H](CCC(=O)O)C(=O)N[C@@H](CC(=O)O)C(=O)N[C@@H](CCC(=O)O)C(=O)N[C@@H](Cc4ccc(OP(=O)(O)O)cc4)C(=O)N[C@H](C(=O)N[C@@H](CC(N)=O)C(=O)N[C@@H](CCC(=O)O)C(=O)N4CCC[C@H]4C(=O)N[C@@H](CC(C)C)C(=O)N[C@@H](Cc4ccc(O)cc4)C(=O)N[C@@H](CC(C)C)C(=O)N[C@@H](CC(=O)O)C(=O)O)C(C)C)cc3C(=O)[O-])c3ccc(=[N+](CC)CC)cc-3oc2c1 [ErbB4 1202 (18-mer)] (HELM PEPTIDE1{[CCN(CC)c1ccc2c(-c3ccc(C(=O)[*:2])cc3C(=O)[O-])c3ccc(=[N+](CC)CC)cc-3oc2c1].N.G.P.P.K.A.E.D.E.[O=C([C@H](Cc1ccc(OP(=O)(O)O)cc1)N[*:1])[*:2]].V.N.E.P.L.Y.L.D}$$$$V2.0) | – | – | – | – | – | – | 8.56 | – | 0.50 | 2.06 | 1.61 | 15.93 | 0.17 | 0.54 | 0.66
CC[C@H](C)[C@H](NC(=O)[C@H](CC(N)=O)NC(=O)[C@H](CC(N)=O)NC(=O)[C@H](CCCCN)NC(=O)[C@H](CC(C)C)NC(=O)[C@H](Cc1ccc(OP(=O)(O)O)cc1)NC(=O)[C@H](CCC(=O)O)NC(=O)[C@H](C)NC(=O)[C@H](CCCCN)NC(=O)CNC(=O)[C@H](CC(C)C)NC(=O)[C@@H](NC(=O)[C@H](CC(N)=O)NC(=O)[C@H](C)NC(=O)[C@@H](N)Cc1ccccc1)[C@@H](C)O)C(=O)N[C@@H](CC(C)C)C(=O)N[C@@H](CO)C(=O)N[C@@H](CC(=O)O)C(=O)O [ErbB4 pY1221 (18-mer)] (HELM PEPTIDE1{F.A.N.T.L.G.K.A.E.[O=C([C@H](Cc1ccc(OP(=O)(O)O)cc1)N[*:1])[*:2]].L.K.N.N.I.L.S.D}$$$$V2.0) | – | – | – | – | – | – | – | – | 1.24 | – | 2.36 | 10.86 | – | – | –
